# Laboratory results from US20150374658A1, “COMPOSITION COMPRISING LICORICIDINE” (ANALYTICON DISCOVERY GMBH, priority 2012, published 2015).
# Tests used:
# [1] = test system: Corynebacterium xerosis DSM 20743 (ATCC 373); assay: Classic assay, planktonic growth (OD580); type: cell-based; conditions: read-out: IC50, planktonic growth
# Experimental: (§1) Corynebaterium xerosis is usually characterized as a rod-like gram positive bacterium. Under laboratory conditions (96 well plates) it takes ˜24 hours until Corynebaterium xerosis reaches stationary growth phase. Within this period planktonic growth can be quantified by spectroscopic means and a biofilm can be detected and quantified by standard crystal violet incorporation (c.f. O'Toole & Kolter, 1998, Mol. Microbiol. 28(3), 449-461). Planktonic growth denotes growth of non-adherent cells in the bulk liquid whereas biofilm denotes growth of cells adherent to solid surfaces.
# (§2) Routine susceptibility testing of C. xerosis in high throughput format was done by simultaneous addition of test compounds and inoculum (“classic assay”). Growth of untreated (i.e. no extracts or test compounds added, control) planktonic cells ceased 7 hours after inoculation, and decreased by 13% at 24 hours. Biofilm development reached maximum 10 hours upon inoculation and kept constant for the rest of the test period (30 hours).
# (§3) Formation of planktonic and biofilm cells was determined 18-24 hours after inoculation, thus at a time when some planktonic cells lysed. […]
# (§4) Effects of test compounds were evaluated by comparison of turbidity (optical density, OD580) and crystal violet staining (biofilm; CV580) of treated and untreated samples (control; 100%). […]
# [2] = test system: Corynebacterium xerosis DSM 20743 (ATCC 373); assay: Classic assay, biofilm formation (crystal violet, CV580); type: cell-based; conditions: read-out: IC50, biofilm growth mode
# Experimental: as §1, §2, §3, §4
# [3] = Stability assessment of licoricidine using different stabilizers (HPLC peak area, storage at 40° C.); type: physicochemical; conditions: HPLC UV 225 nm
# Experimental: Five times 5 mg ethanolic extract (0.1%) were dissolved in 1.5 ml ethanol and 3.5 ml buffer pH 7. • To the first batch 20 mg citric acid (0.4%) were added as a stabilizer and the resulting batch was stored at 40° C. • To the second batch 50 mg citric acid (1.0%) were added as a stabilizer and the resulting batch was stored at 40° C. • To the third batch 20 mg ascorbic acid (0.4%) were added as a stabilizer and the resulting batch was stored at 40° C. • To the fourth batch 50 mg ascorbic acid (1.0%) were added as a stabilizer and the resulting batch was stored at 40° C. • The fifth batch was stored as a reference at −18° C.
# 30 mg lipophilic extract were dissolved in 30 ml safflower oil at 80° C.
# The obtained solution was split into three batches: • To the first batch 10 mg/ml ascorbic acid palmitate were added as a stabilizer and the resulting batch was stored at 40° C. • To the second batch 10 mg/ml BHA (Butylhydroxyanisol) were added as a stabilizer and the resulting batch was stored at 40° C. • The third batch was stored as a reference at −18° C.
# Dissolve 120 mg lipophilic extract in 30 ml safflower oil at 80° C.
# Split in tree (3) batches: • Add to the first batch 10 mg/ml ascorbic acid palmitate as a stabilizer and store at 40° C. • Add to the second batch 10 mg/ml BHA (Butylhydroxyanisol) as a stabilizer and store at 40° C. • Freeze the third batch as a reference at −18° C.
# • Add to 10 ml maceration oil 100 mg ascorbic acid palmitate as a stabilizer and store at 40° C. • Add to 10 ml maceration oil 100 mg BHA (Butylhydroxyanisol) as a stabilizer and store at 40° C. • Freeze 10 ml maceration oil as a reference at −18° C.
# 0.5 ml of the respective oil prepared according to any one of examples 5.1 to 5.4 was extracted with 3 ml methanole/water (9:1), centrifugated and the supernatant was used for the analysis.
# • Column: Kromasil C18, 125×4 mm with pre-column • Detection: UV (225 nm) • Mobile Phase: A: water with 5 mM ammoniumformiate and 0.1% formic acid; • B: acetonitrile/methanol=1:1, 5 mM ammoniumformiate and 0.1% formic acid • Gradient: from 60% B to 80% B in 30 min • Flow: 0.8 ml/min • The retention time of the reference peak (licoricidine) is 16.9 (±0.2) min.
SMILES,IC50 [1] [µg/mL],IC50 [2] [µg/mL],"decrease of the peak area of licoricidine ([3]; aqueous solution (buffer pH 7 in addition of 30% ethanol) with 0.1% ethanolic extract and 1% citric acid, eight (8) weeks storage at 40° C.)","decrease of the peak area of licoricidine ([3]; maceration oil with addition of 1% BHA, twelve (12) weeks storage at 40° C.)","decrease of the peak area of licoricidine ([3]; safflower oil with 0.1% lipophilic extract, 1% BHA, twelve (12) weeks storage at 40° C.)","decrease of the peak area of licoricidine ([3]; safflower oil with 0.4% lipophilic extract, 1% BHA, twelve (12) weeks storage at 40° C.)","IC50 ([2]; serial dilutions, classic assay) [µg/mL]"
"Oc1cc(Cl)ccc1Oc1ccc(Cl)cc1Cl [Triclosan, 5-chloro-2-(2,4-dichlorophenoxy)-phenol, reference compound]",1.7,0.6,,,,,
COc1c(CC=C(C)C)c(O)cc2c1C[C@H](c1ccc(O)c(CC=C(C)C)c1O)CO2 [licoricidine],,,lower than 20%,lower than 20%,lower than 20%,lower than 20%,4.3
